# Article PMC6320249 (ACS chemical biology, 2015)
# Experiments:
# [1] = target: T1, p300 (Homo sapiens, UniProt Q09472); test: Microfluidic mobility shift KAT assay, p300 with FITC-H4; assay type: biochemical
# T1 sequence (Q09472 1195-1662): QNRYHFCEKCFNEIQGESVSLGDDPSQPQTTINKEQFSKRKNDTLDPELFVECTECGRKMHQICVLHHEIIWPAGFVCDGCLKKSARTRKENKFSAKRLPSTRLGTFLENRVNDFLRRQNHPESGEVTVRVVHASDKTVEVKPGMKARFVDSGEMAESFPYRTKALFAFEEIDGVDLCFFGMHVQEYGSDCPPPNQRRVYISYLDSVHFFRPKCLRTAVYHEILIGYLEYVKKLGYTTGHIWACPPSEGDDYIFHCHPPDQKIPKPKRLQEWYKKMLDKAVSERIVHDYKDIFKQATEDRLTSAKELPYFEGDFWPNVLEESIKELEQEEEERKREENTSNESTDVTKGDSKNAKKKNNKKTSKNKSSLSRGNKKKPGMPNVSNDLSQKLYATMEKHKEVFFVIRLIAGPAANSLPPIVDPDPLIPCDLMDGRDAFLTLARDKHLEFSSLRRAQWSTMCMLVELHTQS
# [2] = target: T2, Gcn5 (Homo sapiens, UniProt Q92830); test: Microfluidic mobility shift KAT assay, Gcn5 with FITC-H3; assay type: biochemical; settings: for inhibition of Gcn5 in pilot screen: acetyl-CoA 1 μM, unicate, hydroxylamine quench; for detergent sensitivity of Gcn5 inhibition: low (0.01%) compared to high (0.05%) Triton-X
# T2 sequence (Q92830 497-662): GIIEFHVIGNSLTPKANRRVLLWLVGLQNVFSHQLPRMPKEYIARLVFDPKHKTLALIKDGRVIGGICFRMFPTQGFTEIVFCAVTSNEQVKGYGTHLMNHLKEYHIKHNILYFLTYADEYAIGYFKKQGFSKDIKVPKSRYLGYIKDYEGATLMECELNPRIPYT
# [3] = target: T2, Gcn5; test: Real-time kinetic monitoring of Gcn5-catalyzed acetylation; assay type: biochemical; settings: first 25 min vs last 25 min of 100 min; uninhibited enzyme = 1
# [4] = system: HepG2 cells; test: Effect of garcinol on acetylation in HepG2 cells; assay type: cell-based
# [5] = system: cell viability; test: Cell viability / toxicity; assay type: cell-based; settings: at concentrations of ~60 μM
structure (smiles),measurement,setting,value
CC(=O)N[C@@H](CCCCNC(=O)CSCCNC(=O)CCNC(=O)[C@H](O)C(C)(C)COP(=O)(O)OP(=O)(O)OC[C@H]1O[C@@H](n2cnc3c(N)ncnc32)[C@H](O)[C@@H]1OP(=O)(O)O)C(N)=O [Lys-CoA],inhibition of p300 in pilot screen,"[1]; compound 40 μM, acetyl-CoA 1 μM, unicate, hydroxylamine quench",greater than 40%
same,p300 versus Gcn5 selectivity in pilot screen (in words),"[1]; compound 40 μM, p300 compared to Gcn5",inhibited p300 considerably more strongly than Gcn5
same,inhibition of Gcn5 in pilot screen,[2]; compound 40 μM,greater than 40%
CCCCCCCc1ccc(CCc2cccc(O)c2C(=O)O)cc1 [MG-149],inhibition of Gcn5 in pilot screen,[2]; compound 40 μM,greater than 40%
C=C(C)[C@@H](CC=C(C)C)C[C@@]12C[C@@H](CC=C(C)C)C(C)(C)[C@@](CC=C(C)C)(C(=O)C(C(=O)c3ccc(O)c(O)c3)=C1O)C2=O [garcinol],effect on p300 in pilot screen (in words),[1]; compound 40 μM,Selective inhibition of p300
same,detergent sensitivity of p300 inhibition,[1]; low (0.01%) compared to high (0.05%) Triton-X,significantly greater inhibitory activity
same,effect on Gcn5 in pilot screen (in words),[2]; compound 40 μM,did not manifest as a Gcn5 hit
same,detergent sensitivity of Gcn5 inhibition,[2],significantly greater inhibitory activity
same,time dependence value (ratio of acetylation rates at early/late intervals),[3],> 1
same,lowest concentration with effects on acetylation,[4],~ 25 μM
same,toxicity,[5],toxic
Cc1cc2c(C(C)C)c(O)c(O)c(C=O)c2c(O)c1-c1c(C)cc2c(C(C)C)c(O)c(O)c(C=O)c2c1O [gossypol],detergent sensitivity of Gcn5 inhibition,[2],detergent-sensitive inhibition
same,inhibition at 40 µM,[2]; read-out: inhibition of Gcn5 in pilot screen,> 40%
same,time dependence value (ratio of acetylation rates at early/late intervals),[3],> 1
O=C1c2c(O)ccc(O)c2C(=O)c2c(NCCNCCO)ccc(NCCNCCO)c21 [mitoxantrone],effect on p300 in pilot screen (in words),[1]; compound 40 μM,selective p300 activation
